Drawing on ChEMBL document CHEMBL3779887, “Robenidine Analogues as Gram-Positive Antibacterial Agents” (J Med Chem, 2016), this text covers MIC, MIC90 and MBC for 30 molecules.

SMILES strings stand for the structures. ≈ marks a conversion by molar mass, not a printed value. Some results are limits rather than exact numbers.

Common to all, as to format: functional
In assay [1] the test system is Escherichia coli. In words: Antibacterial activity against Escherichia coli ATCC 25922 after 20 to 24 hrs.
A further assay deals with Enterococcus. The assay is described as follows: Antibacterial activity against vancomycin-resistant Enterococcus after 20 to 24 hrs.
Assay [2] relates to Staphylococcus aureus. The assay is described as follows: Antibacterial activity against methicillin-resistant Staphylococcus aureus after 20 to 24 hrs.
Assay [3] concerns Pseudomonas aeruginosa. The assay is described as follows: Antibacterial activity against Pseudomonas aeruginosa ATCC 27853 after 20 to 24 hrs.
The subject of assay [4] is Escherichia coli. The assay is described as follows: Antibacterial activity against Escherichia coli ATCC 25922 after 20 to 24 hrs in presence of polymyxin B nonapeptide.
The subject of assay [5] is Pseudomonas aeruginosa. The assay is described as follows: Antibacterial activity against Pseudomonas aeruginosa ATCC 27853 after 20 to 24 hrs in presence of polymyxin B nonapeptide.
Assay [6] concerns Staphylococcus aureus. The assay is described as follows: Antibacterial activity against methicillin-resistant Staphylococcus aureus clinical isolate after 20 to 24 hrs.
The test system of assay [7] is Staphylococcus aureus. The assay is described as follows: Bactericidal activity against methicillin-sensitive Staphylococcus aureus ATCC 6538 after 24 and 48 hrs.
Assay [8] has as its system Staphylococcus aureus. The assay is described as follows: Bactericidal activity against methicillin-sensitive Staphylococcus aureus ATCC 49775 after 24 and 48 hrs.
Assay [9] concerns Staphylococcus aureus. The assay is described as follows: Antibacterial activity against methicillin-sensitive Staphylococcus aureus ATCC 25923 after 20 to 24 hrs.
Assay [10] concerns Staphylococcus aureus. The assay is described as follows: Antibacterial activity against methicillin-sensitive Staphylococcus aureus ATCC 6538 after 20 to 24 hrs.
Assay [11] concerns Staphylococcus aureus. In words: Bactericidal activity against methicillin-sensitive Staphylococcus aureus ATCC 29213 after 24 and 48 hrs.
The subject of assay [12] is Staphylococcus aureus. In words: Bactericidal activity against methicillin-resistant Staphylococcus aureus clinical isolate after 24 and 48 hrs.
Assay [13] deals with Staphylococcus aureus. The assay is described as follows: Bactericidal activity against methicillin-sensitive Staphylococcus aureus ATCC 25923 after 24 and 48 hrs.
The test system of assay [14] is Staphylococcus aureus. In words: Antibacterial activity against methicillin-sensitive Staphylococcus aureus ATCC 29213 after 20 to 24 hrs.
In assay [15] the test system is Staphylococcus aureus. In words: Antibacterial activity against methicillin-sensitive Staphylococcus aureus ATCC 49775 after 20 to 24 hrs.

In general, MIC refers to the smallest concentration in the dilution series that meets the test's criterion for growth inhibition. Turning to `N=C(N/N=C/c1ccc(Cl)cc1F)N/N=C/c1ccc(Cl)cc1F`, the minimal inhibitory concentration (MIC) is greater than 400 µM in the assay with Escherichia coli [1], 7.4 µM (≈ 2.74 µg/mL) with Enterococcus, 6.1 µM (≈ 2.26 µg/mL) against Staphylococcus aureus [2] and greater than 400 µM in the assay with Pseudomonas aeruginosa [3].

Regarding `COc1ccc(/C=N/NC(=N)N/N=C/c2ccc(OC)cc2)cc1`, the MIC against Escherichia coli [1], in the assay on Enterococcus, with Staphylococcus aureus [2] and against Pseudomonas aeruginosa [3] was greater than 400 µM in each case.

For `N=C(N/N=C/c1cccc(Cl)c1)N/N=C/c1cccc(Cl)c1`, the minimal inhibitory concentration (MIC) against Escherichia coli [1] was greater than 400 µM; against Enterococcus, 10.8 µM (≈ 3.61 µg/mL); in the assay with Staphylococcus aureus [2] it was 8.1 µM (≈ 2.71 µg/mL); against Pseudomonas aeruginosa [3], greater than 400 µM.

For `N=C(N/N=C/c1cc(F)ccc1F)N/N=C/c1cc(F)ccc1F`, the minimum inhibitory concentration (MIC) in the assay on Escherichia coli [1], against Enterococcus, against Staphylococcus aureus [2] and against Pseudomonas aeruginosa [3] was greater than 400 µM each time.

As for `COc1cc(Br)c(/C=N/NC(=N)N/N=C/c2cc(OC)c(OC)cc2Br)cc1OC`, the MIC against Escherichia coli [1], with Enterococcus, with Staphylococcus aureus [2] and in the assay with Pseudomonas aeruginosa [3] was greater than 400 µM in each case.

On to `N=C(N/N=C/c1ccccc1F)N/N=C/c1ccccc1F`, for which the MIC in the assay with Escherichia coli [1], in the assay on Enterococcus, against Staphylococcus aureus [2] and against Pseudomonas aeruginosa [3] was greater than 400 µM each time.

On to `C#Cc1ccc(/C=N/NC(=N)N/N=C/c2ccc(C#C)cc2)cc1`, for which the MIC is greater than 400 µM with Escherichia coli [1], 17.2 µM (≈ 5.39 µg/mL) against Enterococcus, greater than 400 µM with Staphylococcus aureus [2] and greater than 400 µM with Pseudomonas aeruginosa [3].

For orientation: MIC90 means the lowest concentration that inhibits either 90% of growth or 90% of the strains tested, depending on the study. Regarding `CC(C)/N=c1\cc2n(-c3ccc(Cl)cc3)c3ccccc3nc-2cc1Nc1ccc(Cl)cc1` [CLOFAZIMINE], the MIC90 is greater than 250 µM in the assay with Escherichia coli [1], 4.2 µM in the assay with Escherichia coli [4], greater than 250 µM against Pseudomonas aeruginosa [3] and 8.4 µM in the assay with Pseudomonas aeruginosa [5].

With `Cc1ccccc1/C=N/NC(=N)N/N=C/c1ccccc1C`, the MIC with Escherichia coli [1] is greater than 400 µM; in the assay on Enterococcus, 61 µM (≈ 17.9 µg/mL); with Staphylococcus aureus [2], 121 µM (≈ 35.5 µg/mL); in the assay on Pseudomonas aeruginosa [3], greater than 400 µM.

On to `COc1ccc(/C=N/NC(=N)N/N=C/c2ccc(OC)c(OC)c2)cc1OC`, for which the minimal inhibitory concentration (MIC) with Escherichia coli [1], with Enterococcus, with Staphylococcus aureus [2] and against Pseudomonas aeruginosa [3] was greater than 400 µM throughout.

For the molecule `N=C(N/N=C/c1ccc(OC(F)(F)F)cc1)N/N=C/c1ccc(OC(F)(F)F)cc1`, the MIC is greater than 400 µM against Escherichia coli [1], 85 µM (≈ 36.8 µg/mL) in the assay with Enterococcus, 187 µM (≈ 81 µg/mL) in the assay on Staphylococcus aureus [2] and greater than 400 µM in the assay on Pseudomonas aeruginosa [3].

For the molecule `CC(=O)Nc1ccc(/C=N/NC(=N)N/N=C/c2ccc(NC(C)=O)cc2)cc1`, the MIC in the assay with Escherichia coli [1], with Enterococcus, in the assay with Staphylococcus aureus [2] and with Pseudomonas aeruginosa [3] was greater than 400 µM in each case.

Consider `COc1cccc(/C=N/NC(=N)N/N=C/c2cccc(OC)c2)c1`, for which the minimal inhibitory concentration (MIC) was greater than 400 µM against Escherichia coli [1], 88 µM (≈ 28.6 µg/mL) in the assay with Enterococcus, 88 µM (≈ 28.6 µg/mL) with Staphylococcus aureus [2] and greater than 400 µM with Pseudomonas aeruginosa [3].

As a reminder, the MBC is the smallest concentration meeting the test's criterion for killing. With `CC1(C)S[C@@H]2[C@H](NC(=O)[C@H](N)c3ccccc3)C(=O)N2[C@H]1C(=O)O` [AMPICILLIN], the MIC with Escherichia coli [1] was 45.8 µM (≈ 16 µg/mL); in the assay on Enterococcus it was 11.5 µM (≈ 4.02 µg/mL); in the assay with Staphylococcus aureus [2], 183 µM (≈ 63.9 µg/mL); against Pseudomonas aeruginosa [3], 366 µM (≈ 128 µg/mL). The MIC90 in the assay with Staphylococcus aureus [6], in the assay on Staphylococcus aureus [9], with Staphylococcus aureus [10], against Staphylococcus aureus [14] and against Staphylococcus aureus [15] was 0.3 µM (≈ 0.105 µg/mL) in each case. The minimal bactericidal concentration (MBC) with Staphylococcus aureus [7], with Staphylococcus aureus [8], against Staphylococcus aureus [11], with Staphylococcus aureus [12] and with Staphylococcus aureus [13] was 2 µM (≈ 0.699 µg/mL) throughout.

`N=C(N/N=C/c1ccc(O)c([N+](=O)[O-])c1)N/N=C/c1ccc(O)c([N+](=O)[O-])c1`: the minimum inhibitory concentration (MIC) in the assay on Escherichia coli [1], with Enterococcus, in the assay with Staphylococcus aureus [2] and against Pseudomonas aeruginosa [3] was greater than 400 µM each time.

As for `CC(C)c1ccc(/C=N/NC(=N)N/N=C/c2ccc(C(C)C)cc2)cc1`, the MIC was greater than 400 µM in the assay on Escherichia coli [1], 13 µM (≈ 4.54 µg/mL) against Enterococcus, 9.1 µM (≈ 3.18 µg/mL) against Staphylococcus aureus [2] and greater than 400 µM against Pseudomonas aeruginosa [3].

Consider `N=C(N/N=C/c1ccc(-c2ccccc2)cc1)N/N=C/c1ccc(-c2ccccc2)cc1`, for which the minimal inhibitory concentration (MIC) was greater than 400 µM against Escherichia coli [1], 106 µM (≈ 44.3 µg/mL) against Enterococcus, 282 µM (≈ 118 µg/mL) against Staphylococcus aureus [2] and greater than 400 µM against Pseudomonas aeruginosa [3].

On to `Cc1cccc(/C=N/NC(=N)N/N=C/c2cccc(C)c2O)c1O`, for which the MIC in the assay on Escherichia coli [1], against Enterococcus, against Staphylococcus aureus [2] and against Pseudomonas aeruginosa [3] was greater than 400 µM in each case.

Take `N=C(N/N=C/c1ccc(O)c(O)c1)N/N=C/c1ccc(O)c(O)c1`: the minimum inhibitory concentration (MIC) with Escherichia coli [1], in the assay with Enterococcus, against Staphylococcus aureus [2] and with Pseudomonas aeruginosa [3] was greater than 400 µM each time.

Consider `CC(O)Nc1cc(Cl)ccc1/C=N/NC(=N)N/N=C/c1ccc(Cl)cc1NC(C)O` (stereo not given), for which the MIC is greater than 400 µM in the assay on Escherichia coli [1], 98 µM (≈ 44.3 µg/mL) against Enterococcus, 66 µM (≈ 29.9 µg/mL) against Staphylococcus aureus [2] and greater than 400 µM in the assay with Pseudomonas aeruginosa [3].

Take `N=C(N/N=C/c1ccc(C(F)(F)F)cc1)N/N=C/c1ccc(C(F)(F)F)cc1`: the minimal inhibitory concentration (MIC) in the assay with Escherichia coli [1] was greater than 400 µM; with Enterococcus, 11.4 µM (≈ 4.57 µg/mL); against Staphylococcus aureus [2], 36.5 µM (≈ 14.6 µg/mL); against Pseudomonas aeruginosa [3], greater than 400 µM.

Consider `N=C(N/N=C/c1cccc(C(=O)O)c1)N/N=C/c1cccc(C(=O)O)c1`, for which the MIC in the assay on Escherichia coli [1], in the assay on Enterococcus, against Staphylococcus aureus [2] and against Pseudomonas aeruginosa [3] was greater than 400 µM each time.

With `N=C(N/N=C/c1cccc(O)c1O)N/N=C/c1cccc(O)c1O`, the MIC with Escherichia coli [1] is greater than 400 µM; against Enterococcus, 262 µM (≈ 86.3 µg/mL); with Staphylococcus aureus [2] it was 88 µM (≈ 29 µg/mL); in the assay with Pseudomonas aeruginosa [3], greater than 400 µM.

For `N=C(N/N=C/c1ccc(Cl)cc1N)N/N=C/c1ccc(Cl)cc1N`, the minimal inhibitory concentration (MIC) is greater than 400 µM against Escherichia coli [1], 6.3 µM (≈ 2.29 µg/mL) with Enterococcus, 5 µM (≈ 1.82 µg/mL) with Staphylococcus aureus [2] and greater than 400 µM in the assay with Pseudomonas aeruginosa [3].

For `CSc1ccc(/C=N/NC(=N)N/N=C/c2ccc(SC)cc2)cc1`, the minimal inhibitory concentration (MIC) was greater than 400 µM in the assay with Escherichia coli [1], 12.7 µM (≈ 4.54 µg/mL) with Enterococcus, 61 µM (≈ 21.8 µg/mL) in the assay on Staphylococcus aureus [2] and greater than 400 µM against Pseudomonas aeruginosa [3].

For the molecule `N=C(N/N=C/c1c(F)c(F)c(F)c(F)c1F)N/N=C/c1c(F)c(F)c(F)c(F)c1F`, the MIC in the assay with Escherichia coli [1], in the assay on Enterococcus, in the assay with Staphylococcus aureus [2] and in the assay with Pseudomonas aeruginosa [3] was greater than 400 µM in each case.

Regarding `CC(=O)Nc1cc(Cl)ccc1/C=N/NC(=N)N/N=C/c1ccc(Cl)cc1NC(C)=O`, the minimum inhibitory concentration (MIC) in the assay with Escherichia coli [1], in the assay on Enterococcus, against Staphylococcus aureus [2] and in the assay with Pseudomonas aeruginosa [3] was greater than 400 µM throughout.

As to `N=C(N/N=C/c1ccc(/C=C/C(=O)O)cc1)N/N=C/c1ccc(/C=C/C(=O)O)cc1`, the MIC in the assay on Escherichia coli [1], against Enterococcus, against Staphylococcus aureus [2] and against Pseudomonas aeruginosa [3] was greater than 400 µM throughout.

On to `N=C(N/N=C/c1cc(O)c(O)c(O)c1)N/N=C/c1cc(O)c(O)c(O)c1`, for which the MIC with Escherichia coli [1] is greater than 400 µM; in the assay with Enterococcus, greater than 400 µM; in the assay with Staphylococcus aureus [2] it was 161 µM (≈ 58.2 µg/mL); in the assay on Pseudomonas aeruginosa [3], 322 µM (≈ 116 µg/mL).

With `N=C(N/N=C/c1cccc(O)c1)N/N=C/c1cccc(O)c1`, the minimum inhibitory concentration (MIC) in the assay with Escherichia coli [1] is greater than 400 µM; against Enterococcus, 288 µM (≈ 85.6 µg/mL); in the assay on Staphylococcus aureus [2], 192 µM (≈ 57.1 µg/mL); against Pseudomonas aeruginosa [3], greater than 400 µM.
